Results taken from US20150125904A1, “PROBE INCORPORATION MEDIATED BY ENZYMES” (Massachusetts Institute of Technology, priority 2012, published 2015).
Read-outs that look alike come from different tables or passages of the source.

Columns and labels:
[1] = cited from earlier work
Wild-type LplA = target: T1, Wild-type LplA (Escherichia coli, UniProt P32099); conditions: cited from earlier work
T1 construct: His6 (N); made in house; host or cells: E. coli

LAP-CFP-TM on HEK cells [2] = assay: Enzyme-catalyzed azide ligation efficiencies at the cell surface (anti-lipoic acid antibody staining); assay type: cell-based, human; conditions: for lipoylation of remaining LAP sites after azide labeling, relative to condition 3 (100%): 20 min azide ligation, picolyl azide 8 with W37VLplA, 8-azidooctanoic acid with wild-type LplA; for estimated extent of azide ligation: indirectly estimated from lipoylation extent, 20 min
Protocol: A: Labeling protocol. HEK cells expressing LAP-CFP-TM were labeled with picolyl azide 8 and W37VLplA, or 8-azidooctanoic acid and wild-type LplA, using the same exact conditions as in FIGS. 6 and 9. Thereafter, cells were washed and any remaining unmodified LAP sites were labeled under forcing conditions with lipoic acid (200 μM lipoic acid, 1 mM ATP, and 20 μM wild-type LplA for 20 min). Anti-lipoic acid antibody staining was used to quantify the extent of lipoylation, and CuAAC was performed thereafter with 20 μM Alexa Fluor® 647-alkyne, 100 μM CuSO4, and 500 μM BTTAA ligand for 5 min. Cells were imaged live. B: Representative confocal images. Results obtained using picolyl azide 8 (condition 2) are shown below results with 8-azidooctanoic acid (condition 1). A negative control with neither azide added during the LplA step is shown in the bottom row (condition 3). The Alexa Fluor® 647 channel reflects CuAAC labeling. The Alexa Fluor® 568 channel reflects anti-lipoic acid antibody labeling. The CFP channel showing LAP-CFP-TM expression is overlaid on DIC. Scale bars, 10 μm. C: Quantitation of data in (B). The mean intensities in all three channels were collected for >90 single cells for each condition. To compare the extents of lipoylation, the Alexa Fluor® 568/CFP ratios were calculated (to normalize for variations in LAP expression level), averaged, and plotted on the graph. CuAAC labeling extent was quantified in a similar way. Error bars, ±s.e.m. Due to the forcing conditions of the LplA-catalyzed lipoylation, we set condition 3 to represent 100% lipoylation extent for the cell surface LAP-CFP-TM population. By comparison, lipoylation after picolyl azide 8 labeling proceeds to 19% that of condition. Lipoylation after 8-azidooctanoic acid labeling proceeds to 37% that of condition 3. Based on these, we can indirectly estimate that picolyl azide 8 ligation proceeds to 81%, and 8-azidooctanoic acid ligation proceeds to 63%, under these conditions.
Live HEK cells were incubated with rabbit anti-lipoic acid antibody (Calbiochem) in cell growth medium at 1:300 dilution for 10 min at room temperature, followed by two washes with cell growth medium. Thereafter, cells were incubated with anti-rabbit secondary antibody conjugated to Alexa Fluor® 568 (Life Technologies) in cell growth medium at 1:300 dilution for 10 min at room temperature, followed by two washes with cell growth medium.

[3] = Kinetic analysis of the CuAAC reaction (fluorogenic click with 7-ethynyl coumarin); conditions: for improvement in initial CuAAC rate over carbocyclic analog: 10 μM CuSO4, no accelerating ligand, 2 vs 1, 4 vs 3; for effect of ring substituent on CuAAC reaction: 10 μM CuSO4, no ligand
Protocol: FIG. 4 is a graph illustrating in vitro analysis of CuAAC rates with chelating azides. A: A fluorogenic click reaction with 7-ethynyl coumarin was used to quantify CuAAC reaction progress. Zhou et al., JACS, 126:8862-8863 (2004). B: Various chelating azide structures tested and their CuAAC reaction yields after 10 min and 30 min. Reactions were run with 10 μM CuSO4 and no ligand (THPTA or BTTAA). C: Kinetic comparison of chelating azide 4 and its non-chelating benzyl counterpart 3 at different copper concentrations. CuAAC product was quantified using the assay in A), at 100, 40, and 10 μM CuSO4, both in the absence and presence of Cu(I) ligand THPTA. Measurements were performed in triplicate. Error bars, ±s.d.
Fluorescence was converted to coumarin triazole product quantity by comparison to standard curves, individually generated for each azide-coumarin alkyne adduct. Entries with less than 1% reaction yield (azides 1 and 3) are omitted from the plot. Measurements were performed in triplicate. Error bars, ±s.d.
General reaction conditions: 20 μM azide, 40 μM 7-ethynyl coumarin (A), and 4 mM sodium ascorbate in 100 mM sodium phosphate buffer at pH 7.4 at 25±1° C. 100 μM Tempol was added to each reaction to minimize Cu-dependent fluorescence quenching of 7-ethynyl coumarin and coumarin-triazoles. FIG. 4A.
Reactions were initiated by the addition of CuSO4: 10 μM for the azide compounds shown in FIG. 4B, and 10, 40, or 100 μM for the compounds shown in FIG. 4C. In FIG. 4C when THPTA was included, the THPTA:copper ratio was fixed at a 4:1 molar ratio. Coumarin fluorescence was recorded on a Tecan SAFIRE microplate reader at 2-min intervals for 30 min with excitation at 320 nm and emission detection at 430 nm. For each azide, the turn-on fluorescence of coumarin was correlated to % conversion to product using a calibration curve made from a mixture of known concentrations of 7-ethynyl coumarin and coumarin-triazole adduct of each azide, as follows:
Coumarin-triazole standards for azide 1, 2, 5, 6, and 7 (FIG. 4B) were generated from reacting 120 μM of each azide with 100 μM 7-ethynyl coumarin until 7-ethynyl coumarin was fully converted to the triazole adduct, using 100 μM CuSO4, 400 μM THPTA, and 4 mM sodium ascorbate. […] Such reaction mixture, now representing coumarin-triazole of a known concentration (100 μM), was then mixed with 7-ethynyl coumarin in defined ratios in the presence of 20-fold molar excess of EDTA relative to CuSO4, (which was carried over from the triazole generation reaction), to generate the calibration curve above.
Coumarin-triazole standards for azide 3 and 4 were generated from purified coumarin-triazole adducts for each azide (synthetic methods described below). Calibration curves were generated for azide 3 and 4 using coumarin-triazoles from crude reaction mixtures as described above, and found them to perform similarly to calibration curves generated from purified triazoles. FIG. 4C.

LAP-CFP-TM on HEK cells [4] = assay: Two-step cell surface protein labeling, PRIME followed by CuAAC (Alexa Fluor 647/CFP ratio); assay type: cell-based, human
Protocol: FIG. 6 is a diagram showing comparison of protein labeling signals on live cells using PRIME and CuAAC, with and without chelating azides. Two-step site-specific protein labeling was performed as in FIG. 3B above and 9 below, on HEK cells expressing LAP-tagged cyan fluorescent protein fused to the transmembrane domain of the PDGF receptor (LAP-CFP-TM). In the first step, either W37VLplA was used to target picolyl azide 8 to LAP, or wild-type LplA was used to ligate non-chelating 8-azidooctanoic acid. The efficiencies of these two ligation reactions are compared in FIG. S5. In the second step, CuAAC was performed for 5 min with Alexa Fluor® 647-alkyne and CuSO4 (10, 40, or 100 μM) in combination with either THPTA or BTTAA ligand (provided in 5-fold excess relative to the CuSO4 concentration). To quantify labeling signals, the mean Alexa Fluor® 647 and mean CFP intensities were calculated for >90 cells for each condition, ratioed to normalize for variations in LAP-CFP-TM expression level, and averaged. Error bars, ±s.e.m.
A: Two-step site-specific cell surface protein labeling protocol. In the first step, HEK cells expressing LAP-CFP-TM (TM is the transmembrane helix of the PDGF receptor) were labeled with picolyl azide 8 using W37VLplA and ATP added to the cell medium for 20 min. Alternatively, LAP-CFP-TM was labeled with non-chelating azide 8-azidooctanoic acid using wild-type LplA. In the second step, CuAAC was performed for 5 min using Alexa Fluor® 647-alkyne, various concentrations of CuSO4 (10, 40, or 100 μM), and either THPTA or BTTAA ligand added in 4-fold excess of the CuSO4. B: Representative confocal cell images for twelve different conditions (three CuSO4 concentrations, either THPTA or BTTAA ligand, and either alkyl azide or picolyl azide). For each condition, the Alexa Fluor® 647 labeling channel and the CFP channel, overlaid on DIC, are shown. Insets show the Alexa Fluor® 647 channel at higher contrast. Scale bars, 10 μm.
LplA labeling was performed with picolyl azide 8,8-azidooctanoic acid, or 10-undecynoic acid. CuAAC was performed with either alkyne, picolyl azide, or alkyl azide conjugates to Alexa Fluor® 647. A: Representative images showing labeling of LAP-CFP-TM on the surface of live HEK cells under four different conditions. CFP channels are shown, along with Alexa Fluor® 647 labeling channels normalized to the same intensity range (bottom) or not normalized (middle). LplA labeling protocol for all four conditions: 200 μM azide or alkyne substrate, 10 μM LplA (wild-type or mutant), 1 mM ATP, and 5 mM Mg(OAc)2 in cell culture medium for 20 min. […] B: Quantitation of data in (A). Average Alexa Fluor® 647/CFP intensity ratios were calculated for ˜50 single cells from each condition. […]

[5] = conjugation to LAP, previously reported

T1 sequence (P32099 2-338): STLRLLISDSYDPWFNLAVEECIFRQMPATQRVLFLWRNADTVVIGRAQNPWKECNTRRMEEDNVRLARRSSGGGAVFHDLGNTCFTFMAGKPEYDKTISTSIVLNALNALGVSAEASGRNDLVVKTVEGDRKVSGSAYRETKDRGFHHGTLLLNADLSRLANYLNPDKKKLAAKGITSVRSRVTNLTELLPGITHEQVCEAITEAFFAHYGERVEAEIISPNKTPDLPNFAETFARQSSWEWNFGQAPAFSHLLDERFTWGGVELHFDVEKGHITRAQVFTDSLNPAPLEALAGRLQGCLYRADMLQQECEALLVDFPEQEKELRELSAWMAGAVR

## 6,8-difluoro-7-hydroxycoumarin [Pacific Blue]
[1]
  pKa of 7-OH substituent: 3.7

## O=C(O)CCCC[C@@H]1CCSS1 (racemic) [lipoic acid]
Wild-type LplA; lipoic acid ligation by wild-type LplA
  kcat: 0.22 s⁻¹

## [N-]=[N+]=NCCCCCCCC(=O)O [8-azidooctanoic acid, reference compound]
LAP-CFP-TM on HEK cells [2]
  lipoylation of remaining LAP sites after azide labeling, relative to condition 3 (100%): 37%
  estimated extent of azide ligation: 63%
Wild-type LplA; [5]
  Km: 127 µM
  kcat: 0.111 s⁻¹

## [N-]=[N+]=NCc1ccccn1 [Azide 2, 2-azidomethylpyridine]
[3]
  improvement in initial CuAAC rate over carbocyclic analog: 43 fold

## [N-]=[N+]=NCc1ccc(C(=O)O)cc1 [Azide 3, 4-azidomethylbenzoic acid, reference compound]
[3]; THPTA added, 100 and 40 uM Cu
  time for CuAAC reaction to completion: ≤ 30 min

## [N-]=[N+]=NCc1ccc(C(=O)O)cn1 [Azide 4, 6-Azidomethylnicotinic acid]
[3]
  improvement in initial CuAAC rate over carbocyclic analog: 14 fold
[3]; THPTA absent, 100 and 40 uM Cu
  time for CuAAC reaction to completion: ≤ 30 min
[3]; THPTA added, all three copper concentrations (10, 40, 100 μM)
  time for CuAAC reaction to completion: ≤ 5 min

## COc1ccnc(CN=[N+]=[N-])c1 [Azide 6, 2-Azidomethyl-4-methoxypyridine]
[3]
  effect of ring substituent on CuAAC reaction: further accelerated the CuAAC reaction

## [N-]=[N+]=NCc1cc(Cl)ccn1 [Azide 7, 2-Azidomethyl-4-chloropyridine]
[3]
  effect of ring substituent on CuAAC reaction: dampened the accelerating effect

## [N-]=[N+]=NCc1ccc(C(=O)NCCCCC(=O)O)cn1 [Picolyl azide 8, 5-(6-(Azidomethyl)nicotinamido)pentanoic acid]
LAP-CFP-TM on HEK cells [2]
  lipoylation of remaining LAP sites after azide labeling, relative to condition 3 (100%): 19%
  estimated extent of azide ligation: 81%
LAP-CFP-TM on HEK cells [2]; 20 min labeling conditions
  difference in ligation extent over 8-azidooctanoic acid ligation: at most 1.5 fold
LAP-CFP-TM on HEK cells [4]; 100 μM CuSO4, 500 μM THPTA, 5 min (FIG. 13)
  signal of picolyl azide ligation followed by fluorophore-alkyne relative to alkyne ligation followed by fluorophore-picolyl azide: ~2.4 fold
LAP-CFP-TM on HEK cells [4]; 10, 40, 100 μM Cu, THPTA or BTTAA, corrected
  boost of cell signal on replacement of 8-azidooctanoic acid, corrected for enzymatic ligation efficiencies: ≤ 25 fold
LAP-CFP-TM on HEK cells [4]; picolyl azide at 10 μM Cu (+THPTA)
  signal relative to alkyl azide at 100 μM Cu (+THPTA), corrected value: 1.6 fold
LAP-CFP-TM on HEK cells [4]; picolyl azide at 40 μM Cu, BTTAA
  signal relative to alkyl azide at 100 μM Cu, corrected value: 3.9 fold
